System: SARS-CoV-2 strain PIK35
Test: microbe, parasite or virus in culture
Format: cell-based
Conditions: Severe acute respiratory syndrome coronavirus 2, Vero, 120 h

Work on `O=c1nc(NO)ccn1[C@@H]1O[C@H](CO)[C@@H](O)[C@H]1O` [N^4-hydroxycytidine] yielded an EC50 of over 5 µM.
